From US8349824B2, “Triazolopyridine compounds” (Hoffmann-La Roche Inc., priority 2010, dated 2013)

Assays:
human PDE10A full length = biological target: T1, human PDE10A full length (Homo sapiens, UniProt Q9Y233); test: PDE10A Scintillation Proximity Assay (SPA), human PDE10A full length assay; type: biochemical; settings: 50 nM cGMP + 50 nM [3H]-cGMP, 20 minutes at room temperature, read-out: PDE10A inhibition IC50
T1 construct: purchased Enzo Life Science, Lausen, Switzerland SE-534
Method in brief: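 SPA format with full-length enzyme in 20 mM HEPES pH 7.5, 10 mM MgCl2, 0.05 mg/ml BSA, substrate 50 nM cGMP plus 50 nM [3H]-cGMP. Reaction started with substrate, run 20 min at room temperature, stopped with YSi-SPA beads in zinc sulphate. IC50 from scintillation counts over an inhibitor concentration range.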

T1 sequence (Q9Y233 1-779 isoform Q9Y233-1): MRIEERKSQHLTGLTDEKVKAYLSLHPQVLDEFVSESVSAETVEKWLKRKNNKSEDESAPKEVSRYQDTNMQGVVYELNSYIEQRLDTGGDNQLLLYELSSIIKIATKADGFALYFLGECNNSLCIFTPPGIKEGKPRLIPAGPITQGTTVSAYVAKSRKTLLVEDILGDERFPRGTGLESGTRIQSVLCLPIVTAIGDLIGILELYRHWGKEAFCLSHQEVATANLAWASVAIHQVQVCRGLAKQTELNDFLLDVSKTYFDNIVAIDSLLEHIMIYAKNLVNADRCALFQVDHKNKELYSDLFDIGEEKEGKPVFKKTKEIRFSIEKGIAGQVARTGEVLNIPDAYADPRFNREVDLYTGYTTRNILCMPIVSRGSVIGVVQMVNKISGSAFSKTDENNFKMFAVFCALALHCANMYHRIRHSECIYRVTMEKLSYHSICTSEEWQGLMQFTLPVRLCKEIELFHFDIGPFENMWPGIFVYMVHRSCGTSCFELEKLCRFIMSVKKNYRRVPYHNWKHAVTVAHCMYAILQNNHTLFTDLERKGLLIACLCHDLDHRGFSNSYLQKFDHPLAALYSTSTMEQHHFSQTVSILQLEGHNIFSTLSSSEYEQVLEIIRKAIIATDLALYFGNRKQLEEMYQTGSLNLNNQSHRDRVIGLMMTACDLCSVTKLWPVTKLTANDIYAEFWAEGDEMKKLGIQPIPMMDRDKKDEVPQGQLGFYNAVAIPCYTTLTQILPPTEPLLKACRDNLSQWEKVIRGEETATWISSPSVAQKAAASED

| Compound | IC50 (human PDE10A full length) | melting point |
| --- | --- | --- |
| CN(C)C(=O)c1cnn(C)c1C(=O)Nc1ccn2nc(-c3cccc(F)n3)nc2c1 [Example 120, 2-Methyl-2H-pyrazole-3,4-dicarboxylic acid 4-dimethylamide 3-{[2-(6-fluoro-pyridin-2-yl)-[1,2,4]triazolo[1,5-a]pyridin-7-yl]-amide}] | 1.32 nM | 264.4 °C |
| CN(C(=O)c1cnn(C)c1C(=O)Nc1ccn2nc(N3CCCC3)nc2c1)C1CC1 [Example 123, 2-Methyl-2H-pyrazole-3,4-dicarboxylic acid 4-(cyclopropyl-methyl-amide)3-[(2-pyrrolidin-1-yl-[1,2,4]triazolo[1,5-a]pyridin-7-yl)-amide]] | 0.6 nM | 274.3 °C |
| CCN(C)C(=O)c1cnn(C)c1C(=O)Nc1ccn2nc(N3CCCC3)nc2c1 [Example 124, 2-Methyl-2H-pyrazole-3,4-dicarboxylic acid 4-(ethyl-methyl-amide)3-[(2-pyrrolidin-1-yl-[1,2,4]triazolo[1,5-a]pyridin-7-yl)-amide]] | 0.86 nM | 323.1 °C |

The remaining molecules from weak to strong by IC50 (human PDE10A full length), led by results:

| IC50 (human PDE10A full length) | melting point | Compound |
| --- | --- | --- |
| 6.78 nM | > 280 °C | Cn1ncc(C(=O)N2CCC2)c1C(=O)Nc1ccn2nc(-c3ccnc(F)c3)nc2c1 [Example 118, 4-(Azetidine-1-carbonyl)-2-methyl-2H-pyrazole-3-carboxylic acid [2-(2-fluoro-pyridin-4-yl)-[1,2,4]triazolo[1,5-a]pyridin-7-yl]-amide] |
| 1.2 nM | 263.9 °C | Cn1ncc(C(=O)N2CCC2)c1C(=O)Nc1ccn2nc(-c3cccc(F)n3)nc2c1 [Example 119, 4-(Azetidine-1-carbonyl)-2-methyl-2H-pyrazole-3-carboxylic acid [2-(6-fluoro-pyridin-2-yl)-[1,2,4]triazolo[1,5-a]pyridin-7-yl]-amide] |
